Patent US20240262832A1, “SMALL MOLECULE MODULATORS OF GLUCOCEREBROSIDASE ACTIVITY AND USES THEREOF” (Vanqua Bio, Inc., priority 2021, published 2024)

biological target: T1, GCase (Homo sapiens, UniProt P04062); assay: activation of GCase in a live cell PFB assay in HELA cells; type: cell-based
T1 construct: endogenous in cells; host or cells: HeLa cells
T1 sequence (P04062 40-536): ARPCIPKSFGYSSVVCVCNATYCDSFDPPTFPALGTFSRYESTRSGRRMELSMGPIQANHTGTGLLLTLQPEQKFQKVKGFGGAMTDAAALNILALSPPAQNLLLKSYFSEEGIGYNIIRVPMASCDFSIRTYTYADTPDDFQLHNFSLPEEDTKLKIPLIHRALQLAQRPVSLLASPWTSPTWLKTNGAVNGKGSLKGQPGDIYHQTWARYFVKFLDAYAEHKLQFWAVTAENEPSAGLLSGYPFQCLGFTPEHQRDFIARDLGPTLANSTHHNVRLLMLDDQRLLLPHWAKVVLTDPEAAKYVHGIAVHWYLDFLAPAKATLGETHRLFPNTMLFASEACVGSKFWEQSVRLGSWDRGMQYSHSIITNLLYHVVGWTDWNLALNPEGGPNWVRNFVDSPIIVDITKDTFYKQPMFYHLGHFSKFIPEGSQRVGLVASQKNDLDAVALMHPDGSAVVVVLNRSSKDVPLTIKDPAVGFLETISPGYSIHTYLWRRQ

| Structure (SMILES) | EC50 |
| --- | --- |
| FC(F)Cn1ncc2ncc(N3C[C@@H]4[C@@H](COc5cc(C(F)(F)F)ccn5)[C@@H]4C3)nc21 [Compound 90, (1R,5S,6S)-3-[1-(2,2-difluoroethyl)-1H-pyrazolo[3,4-b]pyrazin-6-yl]-6-({[4-(trifluoromethyl)pyridin-2-yl]oxy}methyl)-3-azabicyclo[3.1.0]hexane] | 10 to 50 µM |
| FC(F)Cn1ncc2ncc(N3C[C@@H]4[C@@H](COc5cnccc5C(F)(F)F)[C@@H]4C3)nc21 [Compound 91, (1R,5S,6S)-3-[1-(2,2-difluoroethyl)-1H-pyrazolo[3,4-b]pyrazin-6-yl]-6-({[4-(trifluoromethyl)pyridin-3-yl]oxy}methyl)-3-azabicyclo[3.1.0]hexane] | 10 to 50 µM |
| FC(F)Cn1ncc2ncc(N3C[C@@H]4[C@@H](COc5ccnc(C(F)(F)F)c5)[C@@H]4C3)nc21 [Compound 92, (1R,5S,6S)-3-[1-(2,2-difluoroethyl)-1H-pyrazolo[3,4-b]pyrazin-6-yl]-6-({[2-(trifluoromethyl)pyridin-4-yl]oxy}methyl)-3-azabicyclo[3.1.0]hexane] | 10 to 50 µM |
| C[C@H]1C[C@@H](COc2cccnc2C(F)(F)F)CN(c2cnc3cnn(CC(F)F)c3n2)C1 [Compound 93, 1-(2,2-Difluoroethyl)-6-((3S,5R)-3-methyl-5-(((2-(trifluoromethyl)pyridin-3-yl)oxy)methyl)piperidin-1-yl)-1H-pyrazolo[3,4-b]pyrazine] | < 10 µM |
| C[C@@H]1C[C@H](COc2cccnc2C(F)(F)F)CN(c2cnc3cnn(CC(F)F)c3n2)C1 [Compound 94, 1-(2,2-Difluoroethyl)-6-((3R,5S)-3-methyl-5-(((2-(trifluoromethyl)pyridin-3-yl)oxy)methyl)piperidin-1-yl)-1H-pyrazolo[3,4-b]pyrazine] | < 10 µM |
| C[C@@H]1C[C@@H](COc2cccnc2C(F)(F)F)CN(c2cnc3cnn(CC(F)F)c3n2)C1 [Compound 95, 1-(2,2-Difluoroethyl)-6-((3R,5R)-3-methyl-5-(((2-(trifluoromethyl)pyridin-3-yl)oxy)methyl)piperidin-1-yl)-1H-pyrazolo[3,4-b]pyrazine] | < 10 µM |
| Cn1c(-c2ccc(F)cc2)nc2ncc(C(=O)N3CCCC(COc4cccnc4C(F)(F)F)C3)nc21 (centres unmarked) [Compound 96, (2-(4-Fluorophenyl)-1-methyl-1H-imidazo[4,5-b]pyrazin-6-yl)(3-(((2-(trifluoromethyl)pyridin-3-yl)oxy)methyl)piperidin-1-yl)methanone] | 10 to 50 µM |
| Cn1c(-c2ccc(F)cc2)nc2nc(C(=O)N3CCCC(COc4cccnc4C(F)(F)F)C3)cnc21 (centres unmarked) [Compound 97, (2-(4-Fluorophenyl)-1-methyl-1H-imidazo[4,5-b]pyrazin-5-yl)(3-(((2-(trifluoromethyl)pyridin-3-yl)oxy)methyl)piperidin-1-yl)methanone] | > 100 µM |
| FC(F)(F)c1ncccc1OC[C@@H]1[C@H]2CN(c3cnc4cnn(C5COC5)c4n3)C[C@@H]12 [Compound 98, 1-(Oxetan-3-yl)-6-((1R,5S,6r)-6-(((2-(trifluoromethyl)pyridin-3-yl)oxy)methyl)-3-azabicyclo[3.1.0]hexan-3-yl)-1H-pyrazolo[3,4-b]pyrazine] | > 100 µM |
| C[C@H]1C[C@H](COc2cccnc2C(F)(F)F)CN(c2cnc3cnn(CC(F)F)c3n2)C1 [Compound 100, 1-(2,2-Difluoroethyl)-6-((3S,5S)-3-methyl-5-(((2-(trifluoromethyl)pyridin-3-yl)oxy)methyl)piperidin-1-yl)-1H-pyrazolo[3,4-b]pyrazine] | 10 to 50 µM |
| FC(F)(F)Cn1ncc2ncc(N3C[C@@H]4[C@@H](COc5cccnc5C(F)(F)F)[C@@H]4C3)nc21 [Compound 101, (1R,5S,6S)-3-[1-(2,2,2-Trifluoroethyl)-1H-pyrazolo[3,4-b]pyrazin-6-yl]-6-({[2-(trifluoromethyl)pyridin-3-yl]oxy}methyl)-3-azabicyclo[3.1.0]hexane] | 10 to 50 µM |
| O=C(c1cnc2c(cnn2-c2ccccc2)n1)N1CCCC(COc2cccnc2C(F)(F)F)C1 (centres unmarked) [Compound 103, (1-Phenyl-1H-pyrazolo[3,4-b]pyrazin-5-yl)(3-(((2-(trifluoromethyl)pyridin-3-yl)oxy)methyl)piperidin-1-yl)methanone] | 10 to 50 µM |
| Cn1c(-c2ccccc2)nc2nc(C(=O)N3C[C@@H]4[C@@H](COc5cccnc5C(F)(F)F)[C@@H]4C3)cnc21 [Compound 105, (1-methyl-2-phenyl-1H-imidazo[4,5-b]pyrazin-5-yl)((1R,5S,6r)-6-(((2-(trifluoromethyl)pyridin-3-yl)oxy)methyl)-3-azabicyclo[3.1.0]hexan-3-yl)methanone] | > 100 µM |
| CC(CC1CCCN(c2cnc3cnn(CC(F)F)c3n2)C1)c1cccnc1C(F)(F)F (centres unmarked) [Compound 108, 1-(2,2-Difluoroethyl)-6-(3-(2-(2-(trifluoromethyl)pyridin-3-yl)propyl)piperidin-1-yl)-1H-pyrazolo[3,4-b]pyrazine] | 50 to 100 µM |
| O=C(c1ccc2cc[nH]c2c1)N1C[C@@H]2[C@@H](COc3cccnc3C(F)(F)F)[C@@H]2C1 [Compound 109, 6-[(1R,5S,6R)-6-({[2-(Trifluoromethyl)pyridin-3-yl]oxy}methyl)-3-azabicyclo[3.1.0]hexane-3-carbonyl]-1H-indole] | 10 to 50 µM |
| CC(C)c1cc(C(=O)N2C[C@@H]3[C@@H](COc4cccnc4C(F)(F)F)[C@@H]3C2)[nH]n1 [Compound 110, (1R,5S,6R)-3-[3-(Propan-2-yl)-1H-pyrazole-5-carbonyl]-6-({[2-(trifluoromethyl)pyridin-3-yl]oxy}methyl)-3-azabicyclo[3.1.0]hexane] | 50 to 100 µM |
| CC(=O)N1CCC(n2ncc3ncc(N4CCCC(COc5ccccc5C(F)(F)F)C4)nc32)CC1 (centres unmarked) [Compound 111, 1-(4-(6-(3-((2-(trifluoromethyl)phenoxy)methyl)piperidin-1-yl)-1H-pyrazolo[3,4-b]pyrazin-1-yl)piperidin-1-yl)ethan-1-one] | < 10 µM |
| CC(=O)N1CCC(c2cncc(N3CCCC(COc4ccccc4C(F)(F)F)C3)n2)C(C)C1 (centres unmarked) [Compound 112, 1-(3-methyl-4-(6-(3-((2-(trifluoromethyl)phenoxy)methyl)piperidin-1-yl)pyrazin-2-yl)piperidin-1-yl)ethan-1-one] | < 10 µM |
| O=C(C1CC1)N1CCC(c2cncc(N3CCCC(COc4ccccc4C(F)(F)F)C3)n2)CC1 (centres unmarked) [Compound 113, Cyclopropyl(4-(6-(3-((2-(trifluoromethyl)phenoxy)methyl)piperidin-1-yl)pyrazin-2-yl)piperidin-1-yl)methanone] | < 10 µM |
| CC1C(COc2cccnc2C(F)(F)F)CCCN1c1cnc2cnn(CC(F)F)c2n1 (centres unmarked) [Compound 116, 1-(2,2-Difluoroethyl)-6-(2-methyl-3-(((2-(trifluoromethyl)pyridin-3-yl)oxy)methyl)piperidin-1-yl)-1H-pyrazolo[3,4-b]pyrazine] | < 10 µM |
| CC1CCC(COc2cccnc2C(F)(F)F)CN1c1cnc2cnn(C3COC3)c2n1 (centres unmarked) [Compound 117, 6-(2-Methyl-5-(((2-(trifluoromethyl)pyridin-3-yl)oxy)methyl)piperidin-1-yl)-1-(oxetan-3-yl)-1H-pyrazolo[3,4-b]pyrazine] | < 10 µM |
| CC1CCC(COc2cccnc2C(F)(F)F)CN1c1cnc2cnn(CC3COC3)c2n1 (centres unmarked) [Compound 118, 6-(2-Methyl-5-(((2-(trifluoromethyl)pyridin-3-yl)oxy)methyl)piperidin-1-yl)-1-(oxetan-3-ylmethyl)-1H-pyrazolo[3,4-b]pyrazine] | < 10 µM |
| FC(F)Cn1ncc2cnc(N3CCCC(COc4cccnc4C(F)(F)F)C3)nc21 (centres unmarked) [Compound 119, 1-(2,2-difluoroethyl)-6-(3-(((2-(trifluoromethyl)pyridin-3-yl)oxy)methyl)piperidin-1-yl)-1H-pyrazolo[3,4-d]pyrimidine] | 10 to 50 µM |
| Fc1cnc(OC[C@@H]2[C@H]3CN(c4cnc5cnn(C6COC6)c5n4)C[C@@H]23)c(F)c1 [Compound 120, 6-((1R,5S,6r)-6-(((3,5-difluoropyridin-2-yl)oxy)methyl)-3-azabicyclo[3.1.0]hexan-3-yl)-1-(oxetan-3-yl)-1H-pyrazolo[3,4-b]pyrazine] | 50 to 100 µM |
| FC(F)(F)c1ncccc1OC[C@@H]1[C@H]2CN(c3nccc(-c4nncs4)n3)C[C@@H]12 [Compound 121, (1R,5S,6r)-3-(4-(1,3,4-Thiadiazol-2-yl)pyrimidin-2-yl)-6-(((2-(trifluoromethyl)pyridin-3-yl)oxy)methyl)-3-azabicyclo[3.1.0]hexane] | 10 to 50 µM |
| CC1CCC(COc2cccnc2C(F)(F)F)CN1c1cnc2cnn(CC(F)(F)F)c2n1 (centres unmarked) [Compound 122, 6-(2-Methyl-5-(((2-(trifluoromethyl)pyridin-3-yl)oxy)methyl)piperidin-1-yl)-1-(2,2,2-trifluoroethyl)-1H-pyrazolo[3,4-b]pyrazine] | < 10 µM |
| COCCn1ncc2ncc(N3CC(COc4cccnc4C(F)(F)F)CCC3C)nc21 (centres unmarked) [Compound 123, 1-(2-Methoxyethyl)-6-(2-methyl-5-(((2-(trifluoromethyl)pyridin-3-yl)oxy)methyl)piperidin-1-yl)-1H-pyrazolo[3,4-b]pyrazine] | < 10 µM |
| Fc1cc(F)cc(OC[C@@H]2[C@H]3CN(c4cnc5cnn(C6COC6)c5n4)C[C@@H]23)c1 [Compound 124] | 10 to 50 µM |
| CC1CC(COc2cccnc2C(F)(F)F)CN(c2cnc3cnn(CC(F)(F)F)c3n2)C1 (centres unmarked) [Compound 127, 6-(3-Methyl-5-(((2-(trifluoromethyl)pyridin-3-yl)oxy)methyl)piperidin-1-yl)-1-(2,2,2-trifluoroethyl)-1H-pyrazolo[3,4-b]pyrazine] | < 10 µM |
